Test results taken from paper PMC9040839 (mBio, 2022).
Where “and” joins values, the source holds several entries; their conditions need not be identical. Equal values may be shown once. Entries after “also recorded” stand apart in the source; their conditions may differ. Read-outs that look alike come from different tables or passages of the source.

What was measured:
PacA(ECA_RS10935)-LBD = PacA(ECA_RS10935)-LBD (Pectobacterium atrosepticum, UniProt Q6D515); assay: Isothermal titration calorimetry of PacA-LBD with ligands; type: binding, P. atrosepticum SCRI1043; settings: ITC, 25°C, pH 7.0
Sequence of PacA(ECA_RS10935)-LBD (Q6D515 entry or part of it): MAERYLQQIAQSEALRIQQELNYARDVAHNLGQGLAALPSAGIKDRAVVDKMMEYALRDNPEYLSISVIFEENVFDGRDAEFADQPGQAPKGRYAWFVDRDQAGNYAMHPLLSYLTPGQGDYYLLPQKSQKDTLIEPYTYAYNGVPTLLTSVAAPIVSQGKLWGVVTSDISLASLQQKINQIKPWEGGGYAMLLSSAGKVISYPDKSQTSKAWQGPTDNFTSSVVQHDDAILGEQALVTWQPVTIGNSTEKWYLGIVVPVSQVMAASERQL
Protocol: Measurements were made using a VP-ITC microcalorimeter (MicroCal, Inc., Northampton, MA) at 25°C. PA4633-LBD was dialyzed into 5 mM Tris, 5 mM PIPES [piperazine-N,N′-bis(2-ethanesulfonic acid)], 5 mM MES (morpholineethanesulfonic acid), 150 mM NaCl, 10% (vol/vol) glycerol, pH 7.5, whereas ECA_RS10935-LBD was dialyzed into 40 mM KH2PO4/K2HPO4, 10% (vol/vol) glycerol, pH 7.0. Proteins at 15 to 22 μM were placed into the sample cell and titrated with 9.6-μL aliquots of 0.5 to 10 mM ligand solutions made up in dialysis buffer. […] The mean enthalpies from the injection of ligands into the buffer were subtracted from raw data prior to data fitting using the “one binding site model” of the MicroCal version of the ORIGIN software.

P. atrosepticum SCRI1043 = assay: Capillary chemotaxis assay; type: cell-based, Pectobacterium atrosepticum; settings: 1 mM chemoeffector
Protocol: (§1) Overnight cultures in M9 minimal medium supplemented with 6 mg/L Fe-citrate, trace elements ([89]), and 15 mM glucose were used to inoculate fresh medium to an OD660 of 0.05. Cells were cultured at 30°C (Pectobacterium atrosepticum, Pantoea agglomerans, Serratia plymuthica, Pseudomonas stutzeri, Agrobacterium tumefaciens, Dickeya solani, Pseudomonas savastanoi pv. savastanoi) or 37°C (P. aeruginosa, E. coli, Salmonella enterica serovar Typhimurium) to an OD660 of 0.4 to 0.5. Subsequently, cells were washed twice by centrifugation (1,667 × g for 5 min at room temperature) and resuspension in chemotaxis buffer (50 mM KH2PO4/K2HPO4, […], 0.05% [vol/vol] glycerol, pH 7.0) and then resuspended in the same buffer at an OD660 of 0.1. Aliquots (230 μL) of the resulting cell suspension were placed into the wells of 96-well microtiter plates. Then, 1-μL capillaries (Microcaps, Drummond Scientific) were heat-sealed at one end and filled with buffer (control) or chemoeffector solution prepared in chemotaxis buffer. The capillaries were rinsed with sterile water and immersed into the bacterial suspensions at their open ends. After 30 min, capillaries were removed from the wells, rinsed with sterile water, and emptied into 1 mL of chemotaxis buffer. Serial dilutions were plated onto M9 minimal medium plates supplemented with 20 mM glucose, incubated at 30°C or 37°C prior to colony counting. Data were corrected with the number of cells that swam into buffer containing capillaries. Data are the means and standard deviations of three biological replicates conducted in triplicate.

PctD-Tar hybrid = PctD-Tar hybrid (Pseudomonas aeruginosa, UniProt Q9HVF8); assay: cell-based
Sequence of PctD-Tar hybrid (Q9HVF8 entry or part of it): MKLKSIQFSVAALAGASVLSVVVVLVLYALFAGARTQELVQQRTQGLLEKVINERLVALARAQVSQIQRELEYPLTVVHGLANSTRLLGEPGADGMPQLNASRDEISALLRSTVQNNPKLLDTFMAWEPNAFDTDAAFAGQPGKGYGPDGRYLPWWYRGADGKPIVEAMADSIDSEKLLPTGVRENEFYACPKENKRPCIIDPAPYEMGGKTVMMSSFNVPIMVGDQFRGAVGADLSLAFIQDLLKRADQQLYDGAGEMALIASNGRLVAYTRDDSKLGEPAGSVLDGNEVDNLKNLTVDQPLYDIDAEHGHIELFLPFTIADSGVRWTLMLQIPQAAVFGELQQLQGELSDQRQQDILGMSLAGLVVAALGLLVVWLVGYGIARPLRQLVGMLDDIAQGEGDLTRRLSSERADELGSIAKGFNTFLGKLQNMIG
Sequence of PctD-Tar hybrid (P07017 267-553, further chain): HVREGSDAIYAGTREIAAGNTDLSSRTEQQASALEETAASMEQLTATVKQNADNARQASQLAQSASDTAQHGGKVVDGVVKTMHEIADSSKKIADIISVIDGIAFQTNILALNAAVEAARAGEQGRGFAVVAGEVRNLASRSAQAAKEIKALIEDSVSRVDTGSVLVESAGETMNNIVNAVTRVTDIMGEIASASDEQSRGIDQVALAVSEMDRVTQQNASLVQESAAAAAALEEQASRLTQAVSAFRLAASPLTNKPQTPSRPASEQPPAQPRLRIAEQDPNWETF

PctD(PA4633)-LBD = PctD(PA4633)-LBD (Pseudomonas aeruginosa, UniProt Q9HVF8); assay: biochemical; settings: for KD / ΔH: ITC, 25°C, pH 7.5
Sequence of PctD(PA4633)-LBD (Q9HVF8 entry or part of it): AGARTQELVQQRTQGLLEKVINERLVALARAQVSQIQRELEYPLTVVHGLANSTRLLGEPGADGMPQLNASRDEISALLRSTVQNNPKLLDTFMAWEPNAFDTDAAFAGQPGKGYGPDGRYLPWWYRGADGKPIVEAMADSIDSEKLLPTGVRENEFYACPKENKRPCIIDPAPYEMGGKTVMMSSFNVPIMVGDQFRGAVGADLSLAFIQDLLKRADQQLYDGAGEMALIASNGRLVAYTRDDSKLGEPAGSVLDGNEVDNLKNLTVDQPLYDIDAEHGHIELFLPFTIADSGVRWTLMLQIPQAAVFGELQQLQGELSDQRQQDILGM
Protocol: Measurements were made using a VP-ITC microcalorimeter (MicroCal, Inc., Northampton, MA) at 25°C. […] The mean enthalpies from the injection of ligands into the buffer were subtracted from raw data prior to data fitting using the “one binding site model” of the MicroCal version of the ORIGIN software.

P. aeruginosa PAO1 [1] = assay: Growth experiments with Biolog compound array PM2A; type: cell-based, Pseudomonas aeruginosa; settings: M9 minimal medium, 96-well plate, 48 h, 37°C
Protocol: PAO1 was grown overnight in M9 minimal medium containing 10 mM glucose. Cultures were washed twice and then diluted to an OD600 of 0.02 in either M9 or M8 medium (M9 minimal medium without NH4Cl) containing 10 mM glucose and medium supplemented with each of the compounds present in the Biolog compound array PM2A (https://www.biolog.com/wp-content/uploads/2020/04/00A-042-Rev-C-Phenotype-MicroArrays-1-10-Plate-Maps.pdf) as sole carbon source. Then, 200 μL of these cultures were transferred into microwell plates, and growth at 37°C was followed on a Bioscreen microbiological growth analyzer (Oy Growth Curves Ab Ltd., Helsinki, Finland).

P. aeruginosa PAO1 [2] = type: cell-based, Pseudomonas aeruginosa; settings: capillary assay; for concentration of maximal chemotaxis response / response threshold of chemotaxis: 30 min; for maximal accumulation: at 10 μM
Protocol: as §1

[3] = test system: E. coli strain UU1250 expressing PctD-Tar; type: cell-based
Protocol: The microfluidic assay was performed as previously described, using a chip with 24 parallel microchannels ([105]). […]. Cells were harvested by centrifugation and washed twice with tethering buffer. Chemoeffectors were dissolved in tethering buffer at a concentration of 50 mM, and the pH was adjusted to 7.0. The chemical source microchannels were filled with 4% (wt/vol) agarose gel to create a semipermeable barrier. E. coli cells were added to the reservoir well and allowed to spread for 30 min into the channels. Compounds were added to the source well and allowed to form a concentration gradient. Cell fluorescence was recorded with a Ti-E inverted microscope system (Nikon Instruments Europe BV, Amsterdam, Netherlands) using a 20×lens objective. Data were analyzed using ImageJ (Wayne Rasband, NIH, USA).

BmrR = biological target: BmrR; design: method as in PMID 21690368; settings: cited from earlier work
[4] = test system: Agrobacterium tumefaciens C58; assay: Capillary chemotaxis assay; type: cell-based; settings: 1 mM acetylcholine
Protocol: as §1, with “Data were corrected with the number of cells that swam into buffer containing capillaries. Data are the means and standard deviations of three biological replicates conducted in triplicate.” left out

Dickeya solani MK10 = assay: Capillary chemotaxis assay; type: cell-based; settings: 1 mM acetylcholine
Protocol: as §1, with “Data were corrected with the number of cells that swam into buffer containing capillaries. Data are the means and standard deviations of three biological replicates conducted in triplicate.” left out

P. aeruginosa = settings: cited from earlier work
TlpQ = settings: cited from earlier work

Compound | Kd (PacA(ECA_RS10935)-LBD) | ΔH (PacA(ECA_RS10935)-LBD) | chemotaxis response (P. atrosepticum SCRI1043) | EC50 (PctD-Tar hybrid) | KD (PctD(PA4633)-LBD) | ΔH (PctD(PA4633)-LBD) | chemoattraction (P. aeruginosa PAO1 [2]) | concentration of maximal chemotaxis response (P. aeruginosa PAO1 [2]) | response threshold of chemotaxis (P. aeruginosa PAO1 [2]) | maximal accumulation (P. aeruginosa PAO1 [2]) | Kd (PctD(PA4633)-LBD) | further results
C[N+](C)(C)C[C@H](O)CC(=O)[O-] [L-carnitine] | 20 ± 2 µM | -4.9 ± 0.4 kcal/mol | low but reproducible chemotaxis | 31 ± 6 µM | No response; also recorded: could not be visualized; also recorded: No binding | No binding | chemoattraction | 10000 µM | 100 µM | – | – | growth as carbon source (P. aeruginosa PAO1 [1]): significant growth
CC(=O)OCC[N+](C)(C)C [acetylcholine] | – | No binding | failed to respond | – | – | -12.2 ± 1.0 kcal/mol | – | 10 µM | 1 µM | ~300,000 bacteria per capillary | – | KD (PacA(ECA_RS10935)-LBD): fails to recognize; also recorded: absence of binding; KD (PacA(ECA_RS10935)-LBD; listed as Acetylcholine): No binding; chemoattraction in microfluidic assay ([3]; 50 mM in source channel): much stronger chemoattraction; Kd (BmrR): 6.6 µM; magnitude of chemotaxis [4]: comparable to that in P. aeruginosa; magnitude of chemotaxis (Dickeya solani MK10): about a third of that observed in P. aeruginosa
C[N+](C)(C)CC(=O)O [betaine] | 7.5 ± 0.1 µM | -16.1 ± 0.1 kcal/mol | low but reproducible chemotaxis | 150 ± 25 µM | low affinity | -2.4 ± 4.1 kcal/mol | comparable to that of L-carnitine | – | – | – | 990 ± 59 µM | –
C[N+](C)(C)CCO [choline] | 113 ± 16.4 µM | -2.1 ± 0.2 kcal/mol | low but reproducible chemotaxis | 0.04 ± 0.01 µM | – | -20.3 ± 0.3 kcal/mol | – | 10 µM | 0.1 µM | ~300,000 bacteria per capillary | 2.6 ± 0.1 µM | chemoattraction in microfluidic assay [3]: much stronger chemoattraction
NCCc1c[nH]cn1 [histamine] | – | – | – | – | – | – | – | – | – | – | – | lowest concentration giving attraction (P. aeruginosa): 500 nM; Kd (TlpQ): 640 nM and 1200 nM
